# Assay results taken from patent publication US8323896B2, “Epidermal growth factor (EGF) expression and/or polymorphisms thereof for predicting the risk of developing cancer” (The General Hospital Corporation, priority 2007, dated 2012).
# Entries after “also recorded” stand apart in the source; their conditions may differ.
# Experiments:
# THLE-5B cells [1] = assay: Anchorage-independent transformation (over-agar) assay in THLE-5B cells; type: cell-based, human; conditions: 10 ng/ml EGF, inhibitor 0.01 μM to 1.0 μM, colonies counted after 14 days
# Method: Cells and Culture Conditions. The normal human liver epithelial cell line, THLE-5B, was kindly provided by Curtis Harris (NCI, National Institutes of Health, Bethesda, Md.). THLE-5B cells were propagated in DMEM/F-12 (1:1; Invitrogen, Carlsbad, Calif.) with 10% fetal bovine serum (MediaTech CellGro, Herndon, Va.), that was supplemented with 100 units/ml penicillin, […] streptomycin (both from Invitrogen), 10 μg/ml insulin, 10 μg/ml transferrin and 10 ng/ml selenium (ITS; Lonza, Walkersville, Md.). Primary human hepatocytes were isolated as described before and cultured in HMM media (Lonza). Cells were maintained at 37° C. in a humidified incubator with 5% CO2 in air.
# Chemicals. Stock solutions of AG1478 (Invitrogen), erlotinib (Tarceva™; Genentech, South San Francisco, Calif.) and gefitinib (Iressa™; AstraZeneca, Wilmington, Del.) were prepared in DMSO and stored at −20° C. EGF (Sigma, St. Louis, Mo.) stock solution was prepared in 10 mM acetic acid and diluted in PBS.
# Anchorage-Independent Transformation Assay. Because cells suspended in soft agar cannot be easily recovered, the inventors used the previously described over-agar assay which allows for the analysis of molecular events associated with tumor promoter-induced cell transformation under anchorage-independent conditions. Briefly, 1×10^4 THLE-5B cells or isolated human hepatocytes were plated onto 0.5% BME agar containing the indicated concentrations of EGF and inhibitors. The plates were cultured for 14 days, after which colonies of transformed cells were counted using a microscope. The results represent one experiment and are presented as the mean±standard deviation of colony counts made by three separate investigators. The experiments were repeated twice to ensure qualitatively similar results.
# THLE-5B cells [2] = assay: Cell growth (MTT) assay in THLE-5B cells; type: cell-based, human; conditions: inhibitor 0.01-1 μM; 72 h
# Method: Cell Growth Assay. Briefly, THLE-5B cells were plated in triplicate at a density of 4×10^4 cells/ml in a 24-well plate. After 24 h, cells were washed once with PBS and medium containing inhibitors at the indicated concentrations or vehicle control was added. After 72 h, the effects of each inhibitor on growth of the cells was measured by colorimetric 3-(4,5-dimethylthiazol-2-yl)-2,5-diphenyltetrazolium bromide (MTT; Sigma) assay. The absorbance at 562 nm was measured using a spectrophotometric plate reader (Emax; Molecular Devices) and the experiment was repeated twice to ensure qualitatively similar results for each inhibitor.
# HCC nodules = conditions: rat, DEN-induced cirrhosis; treatment during weeks 12-18; cited from earlier work
Structure (SMILES),EGF mediated anchorage-independent transformation of THLE-5B cells (THLE-5B cells [1]),cytotoxicity to THLE-5B cells as determined by MTT (THLE-5B cells [2]),EGF mediated anchorage-independent transformation of THLE-5B cells (THLE-5B cells [1]; listed as Gefitnib),formation of HCC nodules (HCC nodules)
"COc1cc2ncnc(Nc3cccc(Cl)c3)c2cc1OC [AG1478, 4-(3-Chloroanillino)-6,7-dimethoxyquinazoline]",prevents EGF mediated anchorage-independent transformation; also recorded: inhibited,not cytotoxic,,
COc1cc2ncnc(Nc3ccc(F)c(Cl)c3)c2cc1OCCCN1CCOCC1 [Gefitinib],inhibited,not cytotoxic,prevents EGF mediated anchorage-independent transformation,significantly reduced the formation of HCC nodules; also recorded: significantly reduced the formation of hepatocellular carcinoma nodules
C#Cc1cccc(Nc2ncnc3cc(OCCOC)c(OCCOC)cc23)c1 [Erlotinib],prevents EGF mediated anchorage-independent transformation; also recorded: inhibited,not cytotoxic,,
